From US12377092B2, “Polycomb inhibitors and uses thereof” (FONDAZIONE ISTITUTO FIRC DI ONCOLOGIA MOLECOLARE (IFOM), priority 2017, dated 2025)
Where two headings read alike, the source gives them in different places.

How the values were obtained:
Assay type in all cases: cell-based, mouse
[1] = test system: EndMT markers (Klf4, Sca1 and Fsp1); assay: RT-PCR of EndMT markers in wild type cells infected with lentivirus expressing LefΔN-β-catΔC; conditions: wild type cells infected with 40 ul LefΔN-β-catΔC lentivirus; PTC209 72 hours from nine days after infection
Experimental: (§1) RNA extraction was performed both with (A) RNeasy kits (Promega) or (B) RNAeasy Mini Kit (QIAGEN). The latter allows also the extraction of proteins from the same sample. The RNA (500 ng) was reverse transcribed with random hexamers (High Capacity cDNA Archive kits; Applied Biosystems) in a final volume of 30 uL. Reaction were made with a thermocycler (Eppendorf) 10 min at 25° C. followed by 2 hours at 37° C. cDNA (5 ng) was amplified in triplicate in a reaction volume of 15 uL using TaqMan Gene Expression Assays (Applied Biosystems) in a ABI/Prism 7900 HT using a pre PCR step of 10 min at 95° C., followed by 40 cycles of 15 seconds at 95° C. and 60 seconds at 60° C. For each sample, the expression level was determined with the comparative threshold cycle (Ct) method, and normalized to the housekeeping genes encoding 18S, glyceraldehyde-3-phosphate dehydrogenase (GAPDH) and hypoxanthine-guanine phosphoribosyltransferase (hprt1). Ct or threshold cycle, represents the PCR cycle at which an increase in reporter fluorescence above a base-line signal can first be detect.
One day before infection, 300.000 cells/well were seeded in a 6-wells plate in complete medium as described before.
The day after 40 uL per well of the concentrated virus was added to the cells medium and leaved overnight at 37° C. […]

[2] = test system: CCM1 knock out cells; assay: Immunofluorescence of junction organisation (VE-cadherin, PECAM1), wild type and CCM1 knock out cells
Text: Also for CCM1 model, the inventors tested the effect of Bmi1 inhibition on junction organisation. The inventors repeated PTC209-treatment on CCM1 model with the same experimental conditions described before, and the inventors analysed VE-cadherin and PECAM1 expression by immunofluorescence analysis (FIG. 12) in parallel with real time analysis (FIG. 13).

[3] = test system: VE-cadherin; assay: Real time analysis of VE-cadherin transcript, CCM3 knock out cells; conditions: PTC209
Experimental: as §1
Western blot and real time analysis of VE-cadherin were performed in parallel to confirm the reduction of VE-cadherin observed by immunofluorescence (FIG. 8A-C). VE-cadherin protein and transcript levels, as expected, were reduced in CCM3 knock out cells compare to wild type, as already shown (Bravi et al., 2015).

[4] = test system: EndMT markers (Klf4, Sca1 and Fsp1); conditions: 72 hours
Experimental: (§2) Cells were seeded 6.3×10^4 cells/cm^2. The day after, PTC209 and UNC1999 were added to the confluent cells. Drugs were left for one or three days depending on the aim of the experiment. Final concentrations used for the two drugs were: 1 uM PTC209 and 5 uM UNC1999.
as §1

[5] = test system: EndMT markers (Klf4, Sca1 and Fsp1); assay: Immunofluorescence analysis of EndMT markers, CCM1 knock out cells; conditions: CCM1 knockout cells; PTC209 vs DMSO
Experimental: Treatment with PTC209 was performed with the same experimental conditions used for CCM3 model. After treatment cells were analysed by western blot (FIG. 9), real time (FIG. 10) and immunofluorescence (FIG. 11) analysis. […] This observation resembled what was previously observed for human patients as well as for CCM3 mouse model, namely that mutation in Ccm3 led to a more severe phenotype, with higher risk of cerebral haemorrhage and more severe malformations, compare to patients with mutation in Ccm1 and Ccm2 (Denier et al., 2006).

[6] = test system: CCM3 knock out cells
Experimental: as §2
For immunofluorescence, cells were fixed in three different ways: with 4% PAF in PBS (followed by permeabilization with 0.5% Triton X-100 for 5 minutes); with 1% PAF in triethanolamine pH 7.5, containing 0.1% Triton X-100 and 0.1% NP-40 for 10 minutes at RT or in methanol for 5 minutes at […]. Blocking (1 hour, RT) were performed in PBS containing 2% BSA and 5% donkey serum. Primary (overnight, 4° C.) and secondary (50 minutes, RT) antibodies were incubated in PBS with 2% BSA.
To check the effect of Bmi1 on junctional organisation, both wild type and CCM3 knock out cells were treated with PTC209 with the same experimental conditions described before and subsequently analysed by immunofluorescence. In particular cells were stained for VE-cadherin and PECAM1 (FIG. 7).
Experiment with combined PTC209 and UNC1999 treatments was repeated with the same experimental conditions described before and junction organisation was analysed through VE-cadherin staining and protein expression analysis (FIG. 19).

[7] = test system: EndMT markers (Klf4, Sca1 and Fsp1); assay: RT-PCR of EndMT markers, freshly isolated brain endothelial cells knockout for CCM3; conditions: freshly isolated brain endothelial cells CCM3fl/fl+TAT-Cre; PTC209 72 hours from the day after recombination
Text: Brain-derived ECs were isolated from VECPAC/CCM3^fl/fl/R26-Confetti. Brains were processed with two different MiltenyiBiotec kits depending on the age at which the mice were sacrificed: “Adult Brain Dissociation Kit”, for […] 7-days old mice, or “Neural Tissue Dissociation Kit” for less than 7-days old mice. All protocols and data sheet are available at www.milteniyibiotec.com.
Recombination of the loxP-flanked genes was induced by treating cells the day after the first splitting (1:2) with 100 ug/mL TAT-Cre-recombinase for 60 minutes in HyClone™ ADCF-MAb medium (GE Healthcare) without serum followed by 100 uM chloroquine for 30 minutes. The cells were washed with HyClone™ ADCF-MAb medium and cultured with complete medium.
RNA extraction was performed both with (A) RNeasy kits (Promega) or (B) RNAeasy Mini Kit (QIAGEN). The latter allows also the extraction of proteins from the same sample. […] For each sample, the expression level was determined with the comparative threshold cycle (Ct) method, and normalized to the housekeeping genes encoding 18S, glyceraldehyde-3-phosphate dehydrogenase (GAPDH) and hypoxanthine-guanine phosphoribosyltransferase (hprt1). Ct or threshold cycle, represents the PCR cycle at which an increase in reporter fluorescence above a base-line signal can first be detect. […]

SMILES: COc1cc(Br)c(Nc2nc(-c3c(C)nc4ncccn34)cs2)c(Br)c1 [PTC209, N-(2,6-dibromo-4-methoxyphenyl)-4-(2-methylimidazo[1,2-a]pyrimidin-3-yl)thiazol-2-amine]
- Sca1 and Fsp1 upregulation (RT-PCR) [1]: strongly reduced
- junction organisation (VE-cadherin, PECAM1 immunostaining) ([2]; CCM1 knock out cells): visible reorganisation of junctions
- junction organisation (VE-cadherin, PECAM1 immunostaining) ([2]; wild type cells, CCM1 model): remained unchanged
- VE-cadherin transcript level (real time analysis) [3]: did not rescue
- Klf4 transcript (real time analysis) ([4]; CCM1 knock out cells): downregulated
- Sca1 and Fsp1 transcripts (real time analysis) ([4]; CCM1 knock out cells): downregulated
- EndMT markers (Klf4, Sca1, Fsp1) transcript levels (real time analysis) ([4]; CCM1 knock out cells, vs DMSO): strong inhibition
- Klf4 transcript (real time analysis) ([4]; wild type cells (physiological condition), CCM1 model): not downregulated
- upregulation of Klf4, Sca1 and Fsp1 (relative fluorescence intensity) [5]: inhibited
- junctional organisation (VE-cadherin, PECAM1 immunostaining) ([6]; CCM3 knock out cells): did not rescue junctional disorganisation
- junctional organisation (VE-cadherin, PECAM1 immunostaining) ([6]; wild type cells, CCM3 model): did not disturb junction organisation
- Klf4 expression (RT-PCR) [7]: not downregulated
- Sca1 and Fsp1 expression (RT-PCR) [7]: strongly reduced
